Legend:
SH-SY5Y cells [1] = test: Cell rescue from Cu (II)-dependent Aβ toxicity (MTT); type: cell-based
Protocol: Cell rescue from Aβ toxicity by NMIs were assessed in SH-SY5Y cells. The cells were seeded into 96 well plate at cell density of 25,000 cells per well and after 24 h the media was replaced with DMEM-F12 with low serum (2.5% FBS). After 6 h, cells were treated with Aβ (10 μM) alone and with NMIs (20 μM) in low serum media. Different concentrations of compound (10, 20 and 50 μM) were used to treat cells. For metal dependent studies, Aβ (10 μM) with metals (20 μM) in the absence and presence of NMIs (20 μM) was treated. The cells were incubated for 30 h and MTT assay was performed to calculate the percentage cell viability.
Further, the effect of concentration of compounds of the present disclosure on the cell rescue was assessed. […] The ability of NMIs to rescue cells from metal-dependent Aβ toxicity were assessed in the presence of Cu (II) and Zn (II). Cells were treated with Aβ (10 μM) along with metal ions (20 μM) and NMIs (20 μM) for 30 h. Aβ in the presence of Cu (II) reduced cell viability to ˜62% and M3 treatment had rescued cells with viability to 85% (FIG. 12C). Aβ with Zn (II) viability reduced to ˜61% and M3 treatment rescued cells by improving the viability to ˜79% (FIG. 12D). […] These in-cellulo experiments confirmed the ability of M3 to effectively rescue neuronal cells from metal-independent and dependent Aβ toxicity.

SH-SY5Y cells [2] = test: Mitochondrial membrane potential (MMP) measurement, Mitotracker Orange; type: cell-based; settings: Aβ 20 μM, 18 h; for MMP relative to control (100%): Aβ alone 70%
Protocol: For quantifying relative change in MMP, SH-SY5Y cells were seeded into 96 plates and incubated. After 24 h, cells were treated with Aβ (20 μM) alone and with two different concentrations of NMIs (M3) (20 and 50 μM) for 18 h and stained with Mitotracker Orange (500 nM) in media for 15 min followed by washing with PBS twice. Then quickly fluorescence was measured (λex=554 nm and λem=576 nm) by Spectramax multi-well plate reader in well scan mode (>80 points, with 6 flashes per read) and averaged the value. The relative fluorescence of treatments in comparison with control was calculated to assess the change in MMP.
For fluorescence imaging, cells were seeded into glass bottom dishes and incubated for 24 h. Then treated with Aβ (20 μM) alone and with NMIs (M3) (50 μM) in low serum media for 18 h and stained with Mitotracker Orange (500 nM) in media for 15 min. Cells were washed with PBS thrice and imaged in live cell set up in Rhodamine channel using 63× oil immersion using Leica DMi8 fluorescence microscope.
The compound M3 with aggregation modulation and antioxidant activity potentially prevent Aβ mediated mitochondrial damage. Quantitatively measurement of mitochondrial membrane potential (MMP) changes was carried out. SH-SY5Y cells were cultured in 96 well plate, treated with Aβ (20 μM) alone and with different concentrations of M3 (20 μM and 50 μM) for 18 h and relative MMP was measured using MitoOrange fluorescence, a MMP-dependent mitochondrial probe. MMP of Aβ treated cells dropped to 70% compared to control (100%) reflecting the functional damage to mitochondria. Upon treatment with M3 at two concentrations 20 μM and 50 µM, MMP was improved to 88% and 93%, respectively, which indicated prevention of mitochondrial damage (FIG. 14A).
Changes in MMP were visualized by treating the cells with Aβ (20 μM) alone and with M3 (50 μM) for 18 h followed by staining with MitoOrange. […] The ability of M3 to modulate Aβ-induced ROS levels in mitochondria was evaluated by the MitoSOX probe. […]

O=C1c2cccc3c(N(Cc4ccccn4)Cc4ccccn4)ccc(c23)C(=O)N1CCc1ccc(O)c(O)c1 [M3, 6-(bis(pyridin-2-ylmethyl)amino)-2-(3,4-dihydroxyphenethyl)-1H-benzo[de]isoquinoline-1,3(2H)-dione]
cell viability (SH-SY5Y cells [1]; Aβ 10 μM, Cu (II) 20 μM, NMIs 20 μM, 30 h, without compound ~62%): 85% | cell viability (SH-SY5Y cells [1]; Cu (II)-dependent Aβ toxicity, higher concentration 50 µM, FIG. 13): 86% | MMP relative to control (100%) (SH-SY5Y cells [2]; compound 20 μM): 88% | MMP by fluorescence imaging (SH-SY5Y cells [2]; compound 50 μM): least affected | MMP relative to control (100%) (SH-SY5Y cells [2]; compound 50 µM): 93%
